Data from US8648103B2, “Nitrogen-containing aromatic heterocyclyl compound” (Daiichi Sankyo Company, Limited, priority 2008, dated 2014).

System: Human subcutaneous adipocytes
Experiment: Adipocyte lipolysis assay (suppression of isoproterenol-stimulated fatty acid release)
Type: cell-based
Conditions: Homo sapiens, Adipocyte; test compound concentration giving 50% fatty acid concentration reduction percentage in culture supernatant; 1 μM isoproterenol, 5 hours incubation; reduction by 100 μM nicotinic acid set at 100%
Description: The suppressive or promoting activity of a test compound on the lipolysis of neutral fat can be assayed according to an adipocyte lipolysis assay as a cell line assay. If a beta adrenoceptor is stimulated with isoproterenol or the like in adipocytes, lipolysis action in which neutral fat accumulated in the cells is decomposed into fatty acid and glycerol can be promoted, and as a result, the amount of such fatty acid or glycerol released out of the cells can be increased. When a test compound that suppresses lipolysis is added to adipocytes, lipolysis-promoting action by isoproterenol stimulation is reduced, and the concentration of fatty acid or glycerol in a medium is decreased. Accordingly, the suppressive activity of a test compound on lipolysis can be assayed by measuring the reduction percentage of the fatty acid concentration or glycerol concentration in a culture supernatant. Likewise, the promoting activity of a test compound on lipolysis can be assayed by measuring the increase percentage of the fatty acid concentration or glycerol concentration in a medium.
• (1) Human subcutaneous adipocytes disseminated onto a 96 well (Dainippon Sumitomo Pharma Co., Ltd.: F-SA-1096) • (2) Adipocyte Maintenance Medium (Dainippon Sumitomo Pharma Co., Ltd.: AM 1) • (3) Lipolysis assay buffer [137 mM NaCl, 5 mM KCl, 4.2 mM NaHCO3, 1.3 mM CaCl2, 0.5 mM KH2PO4, 0.5 mM MgCl2, 0.5 mM MgSO4, 5 mM Glucose, 20 mM Hepes (pH 7.4), 1% BSA, 1 μM Isoproterenol] • (4) NEFA-C Test Wako (Wako Pure Chemical Industries, Ltd.) Preparation of Screening Materials
In this operation, the actual concentration of the test compound in the buffer was 1/1000 of the above-described concentration.
The above-described subcutaneous adipocytes were cultured in 200 μL of an Adipocyte Maintenance Medium in each well for 7 days. During this culturing operation, the medium was exchanged with a fresh one every 3 days. The medium was exchanged by discarding 100 μL of the medium in each well and then adding 100 μL of a fresh Adipocyte Maintenance Medium to the well. Thereafter, the adipocytes were washed with a Lipolysis assay buffer. Subsequently, 50 μL of a Lipolysis assay buffer that contained the above-described test compound was added to each well, and it was then incubated for 5 hours. In order to obtain the measurement value of the test compound in each concentration, 5 wells on a 96-well plate were used with respect to each concentration. As a positive control of a compound having lipolysis suppressive activity, nicotinic acid was used with reference to a previous report [Green A et. al., J. Biol. Chem., 1992, 267(5), 3223-9].
40 μL of a culture supernatant was extracted from each well, and the fatty acid concentration in the supernatant was then measured. Such fatty acid concentration was measured as follows, using the above-described NEFA-C Test Wako. 80 μL of liquid A included in the kit was added to 40 μL of the culture supernatant extracted from each well, and the obtained mixture was then incubated at 37° C. for 10 minutes. Thereafter, 160 μL of liquid B was added, and the obtained mixture was further incubated at 37° C. for 10 minutes. Thereafter, the absorbance at a wavelength of 550 nm was measured. At the same time, a standard fatty acid solution included in the kit was diluted to prepare a dilution series having a volume of 40 μL. According to the same operations as described above, liquid A and liquid B were added, and the absorbance was then measured. In accordance with instructions included with the kit, a calibration curve was prepared. Based on the thus prepared calibration curve, the fatty acid concentration in the culture supernatant was calculated. The reduction percentage of the fatty acid concentration was calculated with the following formula, setting the reduction percentage obtained by addition of 100 μM (final concentration) of nicotinic acid at 100%. […]

Row | Compound | IC50 [nM]
1 | CCn1cc(NC(=O)CCc2onc(-c3ccc(O)cc3)c2Cl)c(C(=O)O)c1 [Example 33, 4-{3-[4-Chloro-(4-hydroxyphenyl)isoxazol-5-yl]propanoyl}amino-1-ethylpyrrole-3-carboxylic acid] | 7
2 | CCn1cc(NC(=O)CCc2noc(-c3ccc(O)cc3)c2Cl)c(C(=O)O)c1 [Example 34, 4-{3-[5-(4-Hydroxyphenyl)-4-chloroisoxazol-3-yl]propanoyl}amino-1-ethylpyrrole-3-carboxylic acid] | 20
3 | CCc1c(-c2ccc(O)cc2)noc1CCC(=O)Nc1cn(CC)cc1C(=O)O [Example 35, 4-{3-[4-Ethyl-(4-hydroxyphenyl)isoxazol-5-yl]propanoyl}amino-1-ethylpyrrole-3-carboxylic acid] | 8
4 | CCn1cc(NC(=O)C(F)Cc2sc(-c3ccc(O)cc3)nc2Cl)c(C(=O)O)c1 (stereo not drawn) [Example 37, 4-{3-[4-Chloro-2-(4-hydroxyphenyl)thiazol-5-yl]-2-fluoropropanoyl}amino-1-ethylpyrrole-3-carboxylic acid] | 13
5 | CCn1cc(NC(=O)CCc2onc(-c3ccc(O)cc3)c2C)c(C(=O)O)c1 [Example 38, 4-{3-[(4-Hydroxyphenyl)-4-methylisoxazol-5-yl]propanoyl}amino-1-ethylpyrrole-3-carboxylic acid] | 4
6 | CCn1cc(NC(=O)C(F)(F)Cc2cnc(-c3ccc(O)cc3)s2)c(C(=O)O)c1 [Example 39, 4-{3-[2-(4-Hydroxyphenyl)thiazol-5-yl]-2,2-difluoropropanoyl}amino-1-ethylpyrrole-3-carboxylic acid] | 40
7 | CCn1cc(NC(=O)CCc2onc(-c3ccc(O)cc3F)c2Cl)c(C(=O)O)c1 [Example 43, 4-{3-[4-Chloro-3-(4-hydroxy-2-fluorophenyl)isoxazol-5-yl]propanoyl}amino-1-ethylpyrrole-3-carboxylic acid] | 7
8 | CCn1cc(NC(=O)CCc2cc(-c3ccc(O)cc3)no2)c(C(=O)O)c1 [Example 44, 4-{3-[3-(4-Hydroxyphenyl)isoxazol-5-yl]propanoyl}amino-1-ethylpyrrole-3-carboxylic acid] | 8
9 | CCc1c(-c2ccc(O)cc2F)noc1CCC(=O)Nc1cn(CC)cc1C(=O)O [Example 45, 4-{3-[4-Ethyl-3-(4-hydroxy-2-fluorophenyl)isoxazol-5-yl]propanoyl}amino-1-ethylpyrrole-3-carboxylic acid] | 9
10 | CCCCn1cc(NC(=O)CCc2cc(-c3ccc(O)cc3)no2)c(C(=O)O)c1 [Example 47, 4-{3-[3-(4-Hydroxyphenyl)isoxazol-5-yl]propanoyl}amino-1-butylpyrrole-3-carboxylic acid] | 8
11 | CC(C)n1cc(NC(=O)CCc2nc(-c3ccc(O)cn3)no2)c(C(=O)O)c1 [Example 48, 4-{3-[3-(5-Hydroxypyridin-2-yl)-1,2,4-oxadiazol-5-yl]propanoyl}amino-1-isopropylpyrrole-3-carboxylic acid] | 1000
12 | O=C(CCc1nc(-c2ccc(O)cc2)no1)Nc1cn(Cc2ccccc2)cc1C(=O)O [Example 49, 4-{3-[3-(4-Hydroxyphenyl)-1,2,4-oxadiazol-5-yl]propanoyl}amino-1-benzylpyrrole-3-carboxylic acid] | 135
13 | CCCCn1cc(NC(=O)CCc2nc(-c3ccc(O)cc3)no2)c(C(=O)O)c1C [Example 50, 4-{3-[3-(4-Hydroxyphenyl)-1,2,4-oxadiazol-5-yl]propanoyl}amino-1-butyl-2-methylpyrrole-3-carboxylic acid] | 823
14 | CCCCn1cc(C(=O)O)c(NC(=O)CCc2nc(-c3ccc(O)cc3)no2)c1C#N [Example 51, 4-{3-[3-(4-Hydroxyphenyl)-1,2,4-oxadiazol-5-yl]propanoyl}amino-5-cyano-1-butylpyrrole-3-carboxylic acid] | 264
15 | CCCCn1cc(NC(=O)CCc2nc(-c3ccc(O)cc3)no2)c(C(=O)O)c1Cl [Example 52, 4-{3-[3-(4-Hydroxyphenyl)-1,2,4-oxadiazol-5-yl]propanoyl}amino-2-chloro-1-butylpyrrole-3-carboxylic acid] | 771
16 | CCn1cc(NC(=O)CCc2noc(-c3ccc(O)cc3)c2C(F)(F)F)c(C(=O)O)c1 [Example 53, 4-{3-[4-Trifluoromethyl-5-(4-hydroxyphenyl)isoxazol-3-yl]propanoyl}amino-1-ethylpyrrole-3-carboxylic acid] | 138
17 | CCn1cc(NC(=O)C(C)Cc2cnc(-c3ccc(O)cc3)s2)c(C(=O)O)c1 (stereo not drawn) [Example 54, 4-{3-[2-(4-Hydroxyphenyl)thiazol-5-yl]-2-methylpropanoyl}amino-1-ethylpyrrole-3-carboxylic acid] | 228
18 | CCn1cc(NC(=O)CCc2nnc(-c3ccc(O)cc3)s2)c(C(=O)O)c1 [Example 55, 4-{3-[5-(4-Hydroxyphenyl)[1,3,4]thiadiazole-2-yl]propanoyl}amino-1-ethylpyrrole-3-carboxylic acid] | 10
19 | CCn1cc(NC(=O)CCc2cnn(-c3ccc(O)cc3)c2C(C)C)c(C(=O)O)c1 [Example 56, 4-{3-[1-(4-Hydroxyphenyl)-5-isopropylpyrazol-4-yl]propanoylamino}-1-ethylpyrrole-3-carboxylic acid] | 101
20 | CCn1cc(NC(=O)CCc2snc(-c3ccc(O)cc3)c2Cl)c(C(=O)O)c1 [Example 57, 4-{3-[4-Chloro-3-(4-hydroxyphenyl)isothiazol-5-yl]propanoylamino}-1-ethylpyrrole-3-carboxylic acid] | 161
21 | CCc1c(-c2ccc(O)cc2)nsc1CCC(=O)Nc1cn(CC)cc1C(=O)O [Example 58, 4-{3-[4-Ethyl-3-(4-hydroxyphenyl)isothiazol-5-yl]propanoylamino}-1-ethylpyrrole-3-carboxylic acid] | 72
22 | CCCn1cc(NC(=O)CCc2cc(-c3ccc(O)cc3)no2)c(C(=O)O)c1 [Example 61, 4-{3-[3-(4-Hydroxyphenyl)isoxazol-5-yl]propanoyl}amino-1-propylpyrrole-3-carboxylic acid] | 22
23 | CCn1cc(NC(=O)C(F)Cc2cc(-c3ccc(O)cc3)no2)c(C(=O)O)c1 (stereo not drawn) [Example 62, 4-{3-[3-(4-Hydroxyphenyl)isoxazol-5-yl]-2-fluoropropanoyl}amino-1-ethylpyrrole-3-carboxylic acid] | 28
24 | CCn1cc(NC(=O)C(F)(F)Cc2cc(-c3ccc(O)cc3)no2)c(C(=O)O)c1 [Example 63, 4-{3-[3-(4-Hydroxyphenyl)isoxazol-5-yl]-2,2-difluoropropanoyl}amino-1-ethylpyrrole-3-carboxylic acid] | 13
25 | CCn1cc(NC(=O)C(F)(F)Cc2cc(-c3ccc(O)cc3)on2)c(C(=O)O)c1 [Example 64, 4-{3-[5-(4-Hydroxyphenyl)isoxazol-3-yl]-2,2-difluoropropanoyl}amino-1-ethylpyrrole-3-carboxylic acid] | 29
26 | CCn1cc(NC(=O)CCc2onc(-c3ccc(O)cc3)c2C(F)F)c(C(=O)O)c1 [Example 65, 4-{3-[4-Difluoromethyl-3-(4-hydroxyphenyl)isoxazol-5-yl]propanoyl}amino-1-ethylpyrrole-3-carboxylic acid] | 18
27 | CCc1c(-c2ccc(O)cn2)noc1CC(F)(F)C(=O)Nc1cn(CC)cc1C(=O)O [Example 66, 4-{3-[4-Ethyl-3-(5-hydroxypyridin-2-yl)isoxazol-5-yl]-2,2-difluoropropanoyl}amino-1-ethylpyrrole-3-carboxylic acid] | 10
